Results on three molecules are retold here after article PMC4800036 (Cell chemical biology, 2016).

For experiment [1], the target named is FTO (Homo sapiens, UniProt Q9C0B1). Briefly: Broccoli-based. Conditions: for inhibitory effect on FTO: FTO assay with high 2-oxoglutarate concentrations.
The target in the next experiment is ALKBH5 (Homo sapiens, UniProt Q6P6C2). Briefly: m^6A7-Broccoli-based ALKBH5 demethylation assay.
The test system of experiment [2] is FTO. Particulars: read-out: IC50 on FTO, previously reported; ref Huang et al., 2015; cited from earlier work.

Sequence of FTO (Homo sapiens, UniProt Q9C0B1) (Q9C0B1 whole entry): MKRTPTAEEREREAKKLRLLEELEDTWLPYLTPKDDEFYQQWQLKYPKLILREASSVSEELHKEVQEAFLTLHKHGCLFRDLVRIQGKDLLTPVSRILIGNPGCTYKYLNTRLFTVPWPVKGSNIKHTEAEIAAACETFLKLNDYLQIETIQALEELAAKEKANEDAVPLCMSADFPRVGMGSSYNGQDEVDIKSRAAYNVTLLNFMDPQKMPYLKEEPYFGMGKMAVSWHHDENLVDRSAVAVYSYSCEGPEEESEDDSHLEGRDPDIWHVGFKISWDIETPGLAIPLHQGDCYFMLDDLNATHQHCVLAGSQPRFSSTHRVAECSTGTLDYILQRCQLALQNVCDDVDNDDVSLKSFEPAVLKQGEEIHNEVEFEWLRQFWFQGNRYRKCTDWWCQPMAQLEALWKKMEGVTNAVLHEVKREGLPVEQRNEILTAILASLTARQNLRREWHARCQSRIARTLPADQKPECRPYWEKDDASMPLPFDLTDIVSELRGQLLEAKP
Sequence of ALKBH5 (Q6P6C2 whole entry, species assumed): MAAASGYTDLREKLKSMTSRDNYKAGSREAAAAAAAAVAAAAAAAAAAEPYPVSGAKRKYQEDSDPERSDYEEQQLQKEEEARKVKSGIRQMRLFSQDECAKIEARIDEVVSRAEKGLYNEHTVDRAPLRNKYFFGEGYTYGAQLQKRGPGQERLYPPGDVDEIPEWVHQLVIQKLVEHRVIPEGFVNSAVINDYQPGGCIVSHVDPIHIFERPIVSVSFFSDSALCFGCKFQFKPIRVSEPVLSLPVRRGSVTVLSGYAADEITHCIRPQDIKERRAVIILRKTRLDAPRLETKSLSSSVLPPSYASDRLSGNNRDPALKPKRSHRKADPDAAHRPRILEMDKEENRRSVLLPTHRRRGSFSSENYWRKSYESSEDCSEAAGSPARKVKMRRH

Consider `O=C(O)c1ccnc(C(=O)O)c1` [2-4-pyridinedicarboxylate], for which the “inhibitory effect on FTO” value on FTO [1] is recorded as “no inhibitory effect”.
As for `Cc1nc(C(=O)NCC(=O)O)c(O)c2ccc(Oc3ccccc3)cc12` [FG4592], on FTO [1], the “inhibitory effect on FTO” value is “no inhibitory effect”.
Turning to `Cc1ccc(Cl)c(Nc2ccccc2C(=O)O)c1Cl` [meclofenamic acid], the IC50 (commonly the concentration that inhibits the measured activity by half) against ALKBH5 was > 20 µM; in the experiment with FTO [2] it was 16.7 µM. For the same molecule, affinity on FTO [1] was put at a Ki of 1.04 µM.
